The values that follow come from paper PMC7710685 (Frontiers in Neuroscience, 2020).

Where two headings read alike, the source gives them in different places.

The subject of assay [1] is γ3 GABAA receptors. The note with it: competition with flunitrazepam or Ro-154513; ref Herb et al., 1992; Lüddens et al., 1994; Tögel et al.; Hadingham et al., 1995; Sieghart; Dämgen and Lüddens, 1999; cited from earlier work.
For assay [2], the target named is α1βγ1 receptors. The settings on record: HEK293 cells expressing α1βγ1, cited from earlier work.
The subject of assay [3] is α2βγ1 receptors. Details: method as in Wafford et al., 1993; Mckernan et al., 1995. The note with it: α2βγ1 in X. laevis oocytes, ref Wafford et al., 1993, Mckernan et al., 1995, cited from earlier work.
For assay [4], the system named is γ1-containing receptors. Details: method as in Benke et al., 1996. The note with it: ref Benke et al., 1996; cited from earlier work.
The target of assay [5] is T1, human α1β2γ1 GABAA receptors (Homo sapiens, UniProt P14867+P47870+Q8N1C3).
T1 sequence (Q8N1C3 36-465): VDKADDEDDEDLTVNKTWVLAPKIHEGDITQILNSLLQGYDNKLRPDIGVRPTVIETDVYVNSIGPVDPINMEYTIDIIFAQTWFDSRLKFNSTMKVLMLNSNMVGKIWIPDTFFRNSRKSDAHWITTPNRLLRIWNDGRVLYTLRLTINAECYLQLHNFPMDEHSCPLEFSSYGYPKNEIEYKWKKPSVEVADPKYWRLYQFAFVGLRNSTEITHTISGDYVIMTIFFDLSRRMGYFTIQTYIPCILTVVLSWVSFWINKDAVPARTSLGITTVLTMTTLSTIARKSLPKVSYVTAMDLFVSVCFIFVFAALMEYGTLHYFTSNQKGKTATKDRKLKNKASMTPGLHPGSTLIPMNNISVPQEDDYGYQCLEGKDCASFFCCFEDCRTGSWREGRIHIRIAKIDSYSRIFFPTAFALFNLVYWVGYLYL
T1 sequence (P47870 25-512 limits assumed): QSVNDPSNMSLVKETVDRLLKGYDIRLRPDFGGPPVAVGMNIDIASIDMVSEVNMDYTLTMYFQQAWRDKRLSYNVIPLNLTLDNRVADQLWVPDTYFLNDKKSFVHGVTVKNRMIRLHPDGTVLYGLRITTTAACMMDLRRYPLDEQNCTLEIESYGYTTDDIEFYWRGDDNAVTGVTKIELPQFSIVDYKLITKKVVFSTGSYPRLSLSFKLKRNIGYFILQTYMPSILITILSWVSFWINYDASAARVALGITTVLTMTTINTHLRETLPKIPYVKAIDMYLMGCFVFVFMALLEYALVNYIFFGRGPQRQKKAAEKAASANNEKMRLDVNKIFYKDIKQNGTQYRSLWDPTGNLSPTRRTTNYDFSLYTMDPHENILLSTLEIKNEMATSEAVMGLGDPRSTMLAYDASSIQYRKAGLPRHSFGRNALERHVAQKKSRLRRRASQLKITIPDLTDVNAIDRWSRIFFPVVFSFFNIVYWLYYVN
T1 sequence (P14867 28-456): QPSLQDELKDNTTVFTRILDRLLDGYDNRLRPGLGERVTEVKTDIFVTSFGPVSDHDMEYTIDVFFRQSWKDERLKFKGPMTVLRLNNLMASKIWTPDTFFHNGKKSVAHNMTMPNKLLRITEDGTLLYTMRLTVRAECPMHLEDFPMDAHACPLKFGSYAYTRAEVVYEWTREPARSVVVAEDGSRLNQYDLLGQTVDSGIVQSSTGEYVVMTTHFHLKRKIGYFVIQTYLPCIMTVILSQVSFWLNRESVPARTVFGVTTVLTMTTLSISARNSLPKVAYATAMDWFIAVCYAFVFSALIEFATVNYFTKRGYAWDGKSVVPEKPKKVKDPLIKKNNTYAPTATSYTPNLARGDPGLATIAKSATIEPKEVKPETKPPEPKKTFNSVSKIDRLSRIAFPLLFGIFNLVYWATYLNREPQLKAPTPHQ
The settings on record: γ1 (α1β2γ1); for Modulation at 10 μM: 10 μM co-applied with GABA EC10, percentage potentiation of GABA EC10.
Description: (§1) To ensure homogenous receptor populations and subunit orientation, we used concatenated receptors expressed in X. laevis oocytes. Concatenated pentameric constructs were created using the subunits γx-β2-α1-β2-α1 (where x = 1, 2, or 3). […] Briefly, natural restriction sites BamHI, HindIII, and KpnI restriction sites in the γ1, 2, 3, β2, or α1 subunits were removed through silent mutations using site-directed mutagenesis. […] Inserted linker lengths are as follows γx-13a-β2-27a-α1-18a-β2-27a-α1.
(§2) The collection and preparation of oocytes were done as previously described ([Ahring et al., 2016]). […] Oocytes were prepared by slicing lobes into small pieces and defolliculated through collagenase A treatment. Stage V and VI oocytes were injected with around 50 nL of 0.5 ng/nL RNA for each concatenated construct or α1/β2 subunits in a 1:1 ratio and incubated for 3–4 days at 18°C in modified Barth’s solution (96 mM NaCl, 2.0 mM KCl, 1 mM MgCl2, 1.8 mM CaCl2, 5 mM HEPES, 2.5 mM sodium pyruvate, 0.5 mM theophylline, and 100 μg/mL gentamicin; pH 7.4).
(§3) This technique was performed as previously described ([Ahring et al., 2016], [2018]; [Liao et al., 2019]). Briefly, oocytes sit in a custom-built chamber and continuously perfused with a saline solution, ‘ND96’ (96 mM NaCl, 2 mM KCl, 1 mM MgCl2, 1.8 mM CaCl2, and 10 mM HEPES; pH 7.4). Glass electrode pipettes were filled with 3 M KCl, with resistances ranging from 0.4 to 2 MΩ. Oocytes were clamped to −60 mV using an Axon GeneClamp 500B amplifier (Molecular Devices). Currents were filtered at 20 Hz with a four-pole low pass Bessel filter (Axon GeneClamp 500 B) and digitized by a Digidata 1440A (Molecular Devices). Sampling was taken at 200 Hz and analyzed using pClamp 10.2 suite (Molecular Devices).
(§4) Each recording day, a fresh stock was used to prepare dilutions. The maximal concentration of DMSO in final drug ND96 solutions was <0.1%.
(§5) The drug modulation experiments were done as follows.
(§6) The final dataset was from a minimum of four experiments and a minimum of two different X. laevis donors. Raw traces were analyzed using pClamp 10.2. Episodic traces for each application were overlaid and the baseline was subtracted. Peak current amplitude was quantified by measuring maximum inward current for each response. Peak current amplitudes (I) were fitted to the Hill equation and normalized to the maximal fitted response (Imax). […] The Emax response and EC50 values were calculated by using non-linear regression to fit the data to the Hill equation in a monophasic model with three variables (top, bottom, EC50) using GraphPad Prism 8. Efficacy at infinitely low compound concentration was set to 0, and the slope was constrained to 1. Means are reported ± one SD.

Assay [6] relates to α1βγ1 receptors. Details: method as in Khom et al., 2006. The settings on record: α1βγ1 in X. laevis oocytes, ref Khom et al., 2006, cited from earlier work.
Assay [7] has as its target T2, human α1β2γ3 GABAA receptors (Homo sapiens, UniProt P14867+P47870+Q99928).
T2 sequence (Q99928 18-467): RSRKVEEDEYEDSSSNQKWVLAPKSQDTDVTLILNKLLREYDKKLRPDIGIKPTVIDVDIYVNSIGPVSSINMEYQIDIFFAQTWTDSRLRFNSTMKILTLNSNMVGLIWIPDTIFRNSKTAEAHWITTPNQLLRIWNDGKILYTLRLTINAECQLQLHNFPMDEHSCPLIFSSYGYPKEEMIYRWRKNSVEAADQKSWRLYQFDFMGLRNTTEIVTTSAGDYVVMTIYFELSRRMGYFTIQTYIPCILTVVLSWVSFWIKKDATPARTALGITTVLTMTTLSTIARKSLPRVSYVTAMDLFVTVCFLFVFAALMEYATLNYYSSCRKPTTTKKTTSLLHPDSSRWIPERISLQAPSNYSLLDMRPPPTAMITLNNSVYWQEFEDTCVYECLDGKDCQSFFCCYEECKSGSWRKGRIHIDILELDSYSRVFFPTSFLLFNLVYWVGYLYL
T2 sequence (P47870 25-512 limits assumed): T1 sequence (P47870 25-512 limits assumed)
T2 sequence (P14867 28-456): T1 sequence (P14867 28-456)
The note with it: γ3 (α1β2γ3).
Description: as §1, §2, §3, §4, §5, §6

In assay [8] the target is T3, human α1β2γ2 GABAA receptors (Homo sapiens, UniProt P14867+P18507+P47870). Kind of assay: cell-based. The note with it: γ2 (α1β2γ2); percent of current through GABA EC10; Hill fit.
T3 sequence (P18507 40-475, one chain of several): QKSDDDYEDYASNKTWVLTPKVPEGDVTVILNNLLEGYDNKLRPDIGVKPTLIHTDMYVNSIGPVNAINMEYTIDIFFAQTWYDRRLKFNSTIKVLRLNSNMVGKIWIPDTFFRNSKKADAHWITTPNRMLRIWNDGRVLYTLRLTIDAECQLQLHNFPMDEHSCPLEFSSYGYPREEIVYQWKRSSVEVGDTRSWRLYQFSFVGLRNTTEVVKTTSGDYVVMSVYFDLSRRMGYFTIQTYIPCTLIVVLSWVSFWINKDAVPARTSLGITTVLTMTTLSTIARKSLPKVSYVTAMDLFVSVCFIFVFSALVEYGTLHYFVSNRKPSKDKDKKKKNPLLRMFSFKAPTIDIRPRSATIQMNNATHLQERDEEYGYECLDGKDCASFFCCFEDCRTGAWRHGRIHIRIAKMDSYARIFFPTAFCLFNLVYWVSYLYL
Description: as §1, §2, §3, §4, §5, §6
In assay [9] the target is T3, human α1β2γ2 GABAA receptors. The note with it: γ2 (α1β2γ2).
Description: as §1, §2, §3, §4, §5, §6
Setting [10] is: 10 μM co-applied with GABA EC10, percentage potentiation of GABA EC10.
Where [11] appears, read: percent of current through GABA EC10, Hill fit.

Consider `Cc1ccc(-c2nc3ccc(C)cn3c2CC(=O)N(C)C)cc1` [Zolpidem, zolpidem], for which the “binding to the classical γ3 receptor benzodiazepine site” value in [1] is reported as “no binding”. Also, the EC50 in assay [2] (ref Esmaeili et al., 2009) was around 200 nM. In addition, in assay [2] (ref Puia et al., 1991), the potentiation is given as 50–75%. Moreover, the maximum efficacy is reported as at most 20% in assay [3], “below 20%” in assay [3] (listed as zolpidem), at most 20% in assay [6] and “below 20%” in assay [6] (listed as zolpidem). Further, the binding entry in assay [4] is recorded as “no binding”. The “Modulation at 10 μM” value in assay [5] was determined as 15 ± 6%; in assay [5] (listed as zolpidem), 15%; in assay [7] (setting [10]) it was 101 ± 37%; in assay [9] (setting [10]), 484 ± 124%. In addition, the “Emax (%)” value in [5] (percent of current through GABA EC10, Hill fit, 0.1 nM-10 μM) was “No fit”; in assay [7] (setting [11]) it was “No fit”; in assay [9] (setting [11]) it was 487 ± 66%. For the same compound, the Emax in assay [8] lay within 475 to 550%.

One may read the EC50 as the midpoint of the concentration-response curve. Usually Emax stands for the maximal effect, on the per cent scale that the assay sets.
